Experimental data from patent US20260285850A1, “SUBSTITUTED OXAZOLIDINONES AND IMIDAZOLINONES AS HERBICIDES” (FMC CORPORATION, priority 2023, published 2026).

Tests used:
Assay type in all cases: in vivo
[1] = tested on: barnyardgrass (Echinochloa crus-galli); test: Test A preemergence soil spray, visual injury rating 0-100; settings: 10 days
Procedure, shortened: (§1)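 Plants were grown in a loam soil-sand blend and treated with test chemical in a non-phytotoxic solvent mixture containing surfactant, either sprayed on soil preemergence or applied postemergence to 2-10 cm plants. After 10 days in a greenhouse, injury was scored visually against untreated controls, 0 meaning no effect and 100 complete control.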

[2] = tested on: blackgrass (Alopecurus myosuroides); test: as above; settings: 10 days
Procedure, shortened: as §1

corn (Zea mays) [3] = test: as above; settings: 10 days
Procedure, shortened: as §1

[4] = tested on: green foxtail (Setaria viridis); test: as above; settings: 10 days
Procedure, shortened: as §1

kochia (Bassia scoparia) [5] = test: as above; settings: 62 g ai/ha, 10 days, 0 = no effect, 100 = complete control
Procedure, shortened: as §1

[6] = tested on: oat, wild (wild oat, Avena fatua); test: as above; settings: 10 days
Procedure, shortened: as §1

[7] = tested on: palmer (palmer amaranth, palmer pigweed, Amaranthus palmeri); test: as above; settings: 10 days
Procedure, shortened: as §1

[8] = tested on: ragweed (common ragweed, Ambrosia artemisiifolia); test: as above; settings: 10 days
Procedure, shortened: as §1

[9] = tested on: ryegrass, Italian (italian ryegrass, Lolium multiflorum); test: as above; settings: 10 days
Procedure, shortened: as §1

soybean (Glycine max) [10] = test: as above; settings: 10 days
Procedure, shortened: as §1

[11] = tested on: wheat (Triticum aestivum); test: as above; settings: 10 days
Procedure, shortened: as §1

[12] = tested on: barnyardgrass (Echinochloa crus-galli); test: Test A postemergence application, visual injury rating 0-100
Procedure, shortened: as §1

[13] = tested on: blackgrass (Alopecurus myosuroides); test: as above
Procedure, shortened: as §1

corn (Zea mays) [14] = test: as above
Procedure, shortened: as §1

[15] = tested on: galium (catchweed bedstraw, Galium aparine); test: as above
Procedure, shortened: as §1

[16] = tested on: green foxtail (Setaria viridis); test: as above
Procedure, shortened: as §1

[17] = tested on: horseweed (Erigeron canadensis); test: as above
Procedure, shortened: as §1

kochia (Bassia scoparia) [18] = test: as above
Procedure, shortened: as §1

[19] = tested on: oat, wild (wild oat, Avena fatua); test: as above
Procedure, shortened: as §1

[20] = tested on: palmer (palmer amaranth, palmer pigweed, Amaranthus palmeri); test: as above
Procedure, shortened: as §1

[21] = tested on: ragweed (common ragweed, Ambrosia artemisiifolia); test: as above
Procedure, shortened: as §1

[22] = tested on: ryegrass, Italian (italian ryegrass, Lolium multiflorum); test: as above
Procedure, shortened: as §1

soybean (Glycine max) [23] = test: as above
Procedure, shortened: as §1

[24] = tested on: wheat (Triticum aestivum); test: as above
Procedure, shortened: as §1

[25] = tested on: barnyardgrass (Echinochloa crusgalli); test: Test B flooded paddy test, visual plant response rating 0-100; settings: 250 g ai/ha, Flood, applied to paddy water, evaluated after 13 days
Procedure, shortened: (§2)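 Paddy-water application: test compounds went directly into water flooded 3 cm above the soil surface, with plants at 2 leaves. After a 13-day greenhouse period, responses were judged by eye relative to controls; a dash marks an untested entry.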

[26] = tested on: ducksalad (Heteranthera limosa); test: as above; settings: 250 g ai/ha, Flood, applied to paddy water, evaluated after 13 days
Procedure, shortened: as §2

rice (Oryza sativa) = test: as above; settings: 250 g ai/ha, Flood, applied to paddy water, evaluated after 13 days
Procedure, shortened: as §2

[27] = tested on: sedge, umbrella (small-flower umbrella sedge, Cyperus difformis); test: as above; settings: 250 g ai/ha, Flood, applied to paddy water, evaluated after 13 days
Procedure, shortened: as §2

[28] = 62 g ai/ha, 0 = no effect, 100 = complete control
[29] = 62 g ai/ha, postemergence, 10 days, 0 = no effect, 100 = complete control
[30] = Postemergence, 16 g ai/ha, greenhouse 10 days, 0 no effect, 100 complete control

## COC(=O)C1=CCC(NC(=O)C2(C)CN(c3cc(Cl)c(F)c(Cl)c3)C(=O)O2)C1 (stereo not drawn) [Compound 129]
[1]; 16 g ai/ha, 0 to 100 scale
  Barnyardgrass plant response rating: 0
[1]; [28]
  Barnyardgrass plant response rating (0-100): 30
[2]; 16 g ai/ha, 0 to 100 scale
  Blackgrass plant response rating: 0
[2]; [28]
  Blackgrass plant response rating (0-100): 0
Corn (Zea mays) [3]; 16 g ai/ha, 0 to 100 scale
  Corn plant response rating: 0
Corn (Zea mays) [3]; [28]
  Corn plant response rating (0-100): 30
[4]; 16 g ai/ha, 0 to 100 scale
  Foxtail, Green plant response rating: 0
[4]; [28]
  Foxtail, Green plant response rating (0-100): 0
Kochia (Bassia scoparia) [5]
  Kochia plant response rating (0-100): 0
[6]; 16 g ai/ha, 0 to 100 scale
  Oat, Wild plant response rating: 0
[6]; [28]
  Oat, Wild plant response rating (0-100): 0
[7]; 16 g ai/ha, 0 to 100 scale
  Pigweed, Palmer plant response rating: 0
[7]; [28]
  Pigweed, Palmer plant response rating (0-100): 20
[8]; 16 g ai/ha, 0 to 100 scale
  Ragweed plant response rating: 0
[8]; [28]
  Ragweed plant response rating (0-100): 0
[9]; 16 g ai/ha, 0 to 100 scale
  Ryegrass, Italian plant response rating: 0
[9]; [28]
  Ryegrass, Italian plant response rating (0-100): 40
Soybean (Glycine max) [10]; 16 g ai/ha, 0 to 100 scale
  Soybean plant response rating: 0
Soybean (Glycine max) [10]; [28]
  Soybean plant response rating (0-100): 0
[11]; 16 g ai/ha, 0 to 100 scale
  Wheat plant response rating: 0
[11]; [28]
  Wheat plant response rating (0-100): 20
[12]; [29]
  Barnyardgrass plant response rating (0-100): 100
[12]; [30]
  Barnyardgrass plant response rating (0 to 100 scale): 80
[13]; [29]
  Blackgrass plant response rating (0-100): 40
[13]; [30]
  Blackgrass plant response rating (0 to 100 scale): 20
Corn (Zea mays) [14]; [29]
  Corn plant response rating (0-100): 100
Corn (Zea mays) [14]; [30]
  Corn plant response rating (0 to 100 scale): 70
[15]; [29]
  Galium plant response rating (0-100): 80
[15]; [30]
  Galium plant response rating (0 to 100 scale): 70
[16]; [29]
  Foxtail, Green plant response rating (0-100): 90
[16]; [30]
  Foxtail, Green plant response rating (0 to 100 scale): 20
[17]; [29]
  Horseweed plant response rating (0-100): 60
[17]; [30]
  Horseweed plant response rating (0 to 100 scale): 0
Kochia (Bassia scoparia) [18]; [29]
  Kochia plant response rating (0-100): 80
Kochia (Bassia scoparia) [18]; [30]
  Kochia plant response rating (0 to 100 scale): 50
[19]; [29]
  Oat, Wild plant response rating (0-100): 20
[19]; [30]
  Oat, Wild plant response rating (0 to 100 scale): 10
[20]; [29]
  Pigweed, Palmer plant response rating (0-100): 70
[20]; [30]
  Pigweed, Palmer plant response rating (0 to 100 scale): 50
[21]; [29]
  Ragweed plant response rating (0-100): 30
[21]; [30]
  Ragweed plant response rating (0 to 100 scale): 0
[22]; [29]
  Ryegrass, Italian plant response rating (0-100): 60
[22]; [30]
  Ryegrass, Italian plant response rating (0 to 100 scale): 30
Soybean (Glycine max) [23]; [29]
  Soybean plant response rating (0-100): 70
Soybean (Glycine max) [23]; [30]
  Soybean plant response rating (0 to 100 scale): 20
[24]; [29]
  Wheat plant response rating (0-100): 80
[24]; [30]
  Wheat plant response rating (0 to 100 scale): 10
[25]
  Plant response rating, Barnyardgrass (0 to 100 scale, 0 is no effect and 100 is complete control): 50
[26]
  Plant response rating, Ducksalad (0 to 100 scale, 0 is no effect and 100 is complete control): 70
Rice (Oryza sativa)
  Plant response rating, Rice (0 to 100 scale, 0 is no effect and 100 is complete control): 40
[27]
  Plant response rating, Sedge, Umbrella (0 to 100 scale, 0 is no effect and 100 is complete control): 90
